Source: US8329704B2, “Substituted pyrazinone derivatives for use in MCH-1 mediated diseases” (Janssen Pharmaceutica, N.V., priority 2005, dated 2012)

Molecular target: T1, human MCH-1 receptor (Homo sapiens, UniProt Q99705)
T1 construct: expressed in transfected cells
Test: Ca2+ mobilization experiment for the MCH-1 receptor (FLIPR), inhibition of MCH-induced Ca2+ mobilization
Type: cell-based
Conditions: CHO cells stably expressing human MCH-1 receptor, inhibition of MCH-induced Ca2+ response, read-out: MCH-1 pIC50 (converted)
Experimental: The interaction of the compounds of Formula (I) with MCH-1 receptors was assessed in in vitro transient calcium (Ca^2+) mobilization assays in the fluorimetric imaging plate reader (FLIPR) format (Sullivan et al. 1999, Methods Mol Biol 114:125-133). In general, the natural agonist (MCH) is incubated with cells expressing the MCH-1 receptor, which elicits a concentration-dependent transient mobilization of Ca^2+ from internal stores. The interaction of the test compounds with the receptor is assessed in competition experiments. Various concentrations of the test compound are added to the incubation mixture containing the receptor-expressing cells and a submaximal concentration of MCH. The test compound in proportion to its antagonist potency and its concentration inhibits MCH-induced Ca^2+ mobilization.
Chinese Hamster ovary cells (CHO) stably expressing the human MCH-1 receptor are grown in a 1:1 mixture of Dulbecco's Modified Eagles Medium (DMEM) and HAM's F12 medium including Glutamax™ (Invitrogen), supplemented with 10% heat-inactivated fetal bovine serum and 400 μg/ml geneticin.
Twenty-four hours before the experiment, MCH-1 receptor-expressing CHO cells are seeded in 20 μl (5,000 cells per well) into 384-well black wall, clear bottom microtiter plates (Costar). On the day of the experiment, 20 μl per well calcium assay kit containing 10 mM probenicide (Molecular Devices) is added. Cells are loaded for 90 min at 37° C. and 5% CO2 in a cell culture incubator. After loading, 20 μl of serial dilutions of the test compound are added and cells are further incubated for 20 min at room temperature in the dark. After 20 min, 20 μl of a submaximal MCH concentration is added and changes in intracellular calcium are recorded directly in a FLIPR III apparatus (Molecular devices).
Data from assays in the presence of compound were calculated as a percentage of total Ca^2+-responses measured in the absence of test compound. Inhibition curves, plotting percent of total Ca^2+-responses versus the log value of the concentration of the test compound, were automatically generated, and sigmoidal inhibition curves were fitted using non-linear regression. The pIC50 values of test compounds were derived from individual curves.

T1 sequence (Q99705 whole entry): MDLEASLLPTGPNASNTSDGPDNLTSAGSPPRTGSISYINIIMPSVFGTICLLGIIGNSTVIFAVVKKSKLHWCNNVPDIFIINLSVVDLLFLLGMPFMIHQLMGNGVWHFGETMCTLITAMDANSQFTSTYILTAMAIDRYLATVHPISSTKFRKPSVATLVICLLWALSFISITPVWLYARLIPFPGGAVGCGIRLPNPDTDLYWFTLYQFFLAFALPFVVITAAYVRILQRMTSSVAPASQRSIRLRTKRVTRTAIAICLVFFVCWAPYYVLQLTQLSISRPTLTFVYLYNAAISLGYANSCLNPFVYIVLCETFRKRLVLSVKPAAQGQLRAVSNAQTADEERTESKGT

Row | IC50 [nM] | Compound
1 | 398 | O=c1c(NCCOc2ccccc2)nccn1-c1ccc2c(cnn2CCN2CCCC2)c1 [3-85]
2 | 50.1 | CN1CCN(c2ccc(-n3ccnc(NCCc4ccccc4)c3=O)cc2Cl)CC1 [3-78]
3 | 31.6 | COc1cc(-n2ccnc(NCCc3ccccc3)c2=O)ccc1OCCN1CCCC(CO)C1 (stereo not drawn) [3-49]
4 | 25.1 | COc1cc(-n2ccnc(NCCc3ccccc3)c2=O)ccc1OC[C@@H]1CCCN1C [3-35]
5 | 63.1 | COc1cc(-n2ccnc(NCCOc3ccccc3)c2=O)ccc1OCCN1CCCC1 [1-67]
6 | 39.8 | COc1cc(-n2ccnc(NCCc3ccccc3)c2=O)ccc1OCCCN1CCC(C#N)CC1 [3-73]
7 | 15.8 | CCCN1CCC(Oc2ccc(-n3ccnc(SCCc4ccccc4)c3=O)cc2OC)C1 (stereo not drawn) [6-17]
8 | 39.8 | COc1cc(-n2ccnc(NCCc3ccccc3)c2=O)ccc1N1CCC(N)C1 (stereo not drawn) [3-08]
9 | 63.1 | COc1cc(-n2ccnc(NCCc3ccccc3)c2=O)ccc1NC1CCN(C)C1 (stereo not drawn) [3-25]
10 | 20 | COc1cc(-n2ccnc(NCCc3ccccc3)c2=O)ccc1OCCN1CCC(C(=O)NC2CC2)CC1 [3-54]
11 | 79.4 | COc1cc(-n2ccnc(NCCOc3ccccc3)c2=O)ccc1N1CCC(N)CC1 [1-13]
12 | 39.8 | COc1cc(-n2ccnc(NCCc3ccc(Br)cc3)c2=O)ccc1OCCN1CCCC1 [2-21]
13 | 200 | COc1cc(-n2ccnc(NCCc3ccc(Cl)cc3Cl)c2=O)ccc1OCCN1CCCC1 [2-39]
14 | 12.6 | CN[C@@H]1CCN(c2ccc(-n3ccnc(SCCc4ccccc4)c3=O)cc2OC)C1 [6-03]
15 | 50.1 | COc1cc(-n2ccnc(NCCc3cccc(Cl)c3)c2=O)ccc1OCCN1CCCC1 [2-23]
16 | 5.01 | COc1cc(-n2ccnc(NCCOc3ccccc3)c2=O)ccc1OCCN1CCC(F)CC1 [1-69]
17 | 79.4 | COc1cc(-n2ccnc(NCCc3ccccc3)c2=O)ccc1OCCN1CCCC1C(N)=O (stereo not drawn) [3-48]
18 | 1580 | CN(C(=O)OC(C)(C)C)C1CCN(c2ccc(-n3ccnc(NCCOc4ccccc4)c3=O)cc2)C1 (stereo not drawn) [1-04]
19 | 100 | COc1cc(-n2ccnc(NCCOc3ccccc3)c2=O)ccc1OCCCN1CCCC1 [1-75]
20 | 794 | CC(=O)N(C)C1CCN(c2ccc(-n3ccnc(NCCOc4ccccc4)c3=O)cn2)C1 (stereo not drawn) [3-88]
21 | 200 | COc1cc(-n2ccnc(NCCc3ccccc3)c2=O)ccc1OCCNC(=O)c1ccncc1 [3-44]
22 | 158 | CN(C(=O)OC(C)(C)C)C1CCN(c2ccc(-n3ccnc(NCCc4ccccc4)c3=O)cc2)C1 (stereo not drawn) [3-05]

Row | IC50 [nM] | Compound
23 | 63.1 | COc1cc(-n2ccnc(NCCc3ccccc3)c2=O)ccc1OCCNC(C)=O [3-38]
24 | 63.1 | COc1cc(-n2ccnc(NCCOc3ccccc3)c2=O)ccc1OCCNC1CC1 [1-59]
25 | 251 | O=c1c(NCCOc2ccccc2Cl)nccn1-c1ccc(OCCN2CCCC2)cc1 [2-27]
26 | 50.1 | COc1cc(-n2ccnc(NCCOc3ccccc3)c2=O)ccc1OCCN1CCCC(CO)C1 (stereo not drawn) [1-72]
27 | 20 | CNC1CCN(c2ccc(-n3ccnc(NCCOc4ccccc4)c3=O)cc2OC)C1 (stereo not drawn) [1-09]
28 | 63.1 | COc1cc(-n2ccnc(NCCc3ccccc3)c2=O)ccc1OCCN1CC[C@@H](F)C1 [3-47]
29 | 79.4 | COc1cc(-n2ccnc(NCCCOc3cccc(C#N)c3)c2=O)ccc1OCCN1CCCC1 [2-44]
30 | 501 | CNC1CCN(c2ccc(-n3ccnc(NCCOc4ccccc4)c3=O)cc2)C1 (stereo not drawn) [1-01]
31 | 31.6 | COc1cc(-n2ccnc(NCCc3ccccc3)c2=O)ccc1OCCN1CCC(O)C1 (stereo not drawn) [3-45]
32 | 79.4 | COc1cc(-n2ccnc(NCCOc3ccccc3)c2=O)ccc1N1CCC(N(C)C(=O)C2CC2)C1 (stereo not drawn) [1-12]
33 | 501 | CC(C)(C)OC(=O)N1CCN(c2ccc(-n3ccnc(NCCc4ccccc4)c3=O)cc2)CC1 [3-07]
34 | 50.1 | CCCN(C)C1CCN(c2ccc(-n3ccnc(NCCc4ccccc4)c3=O)cc2OC)C1 (stereo not drawn) [3-15]
35 | 20 | COc1cc(-n2ccnc(NCCc3ccccc3)c2=O)ccc1OCCN1CCC(F)CC1 [3-50]
36 | 15.8 | COc1cc(-n2ccnc(NCCCOc3ccccc3)c2=O)ccc1OCCN1CCCC1 [2-13]
37 | 158 | COCc1cc(-n2ccnc(NCCOc3ccccc3)c2=O)ccc1OCCN1CCCC1 [1-52]
38 | 2000 | CN(C)CC(=O)Nc1ccc(-n2ccnc(NCCOc3ccccc3)c2=O)cc1 [1-22]
39 | 100 | O=C1CCC(=O)N1CCOc1ccc(-n2ccnc(NCCOc3ccccc3)c2=O)cc1 [1-37]
40 | 100 | COCC(=O)N(C)CCOc1ccc(-n2ccnc(NCCOc3ccccc3)c2=O)cc1OC [1-64]
41 | 1580 | CC(C)N1CCN(c2ccc(-n3ccnc(NCCOc4ccccc4)c3=O)cc2)CC1 [1-07]
42 | 126 | COc1cc(-n2ccnc(SCCc3ccccc3)c2=O)ccc1N1CCC(O)CC1 [6-11]
43 | 31.6 | COc1cc(-n2ccnc(NCCCOc3ccccc3)c2=O)ccc1OCCN(C)C(C)=O [7-03]
44 | 158 | COC(=O)C1CCN(CCOc2ccc(-n3ccnc(NCCOc4ccccc4)c3=O)cc2)CC1 [1-42]

Row | IC50 [nM] | Compound
45 | 3980 | O=c1c(NCCOc2ccccc2)nccn1-c1ccc(OCCN2CCCC2)nc1 [3-91]
46 | 126 | COc1cc(-n2ccnc(NCCOc3ccccc3)c2=O)ccc1OCCN1CCC(O)C1 (stereo not drawn) [1-68]
47 | 316 | O=c1c(NCCOc2ccccc2)nccn1-c1ccc(OCCN2CCC(O)C2)cc1 (stereo not drawn) [1-36]
48 | 2000 | COc1cc(-n2ccnc(N3CCC(c4cccc(C(F)(F)F)c4)C3)c2=O)ccc1OCCN1CCCC1 (stereo not drawn) [4-05]
49 | 126 | COc1cc(-n2ccnc(NCCc3ccccc3)c2=O)ccc1OCCCNC(=O)C1CC1 [3-69]
50 | 1000 | NC(=O)c1cc(-n2ccnc(NCCOc3ccccc3)c2=O)ccc1OCCN1CCCC1 [1-55]
51 | 50.1 | COc1cc(-n2ccnc(NCCc3ccccc3)c2=O)ccc1N1CCC(NC2CC2)C1 (stereo not drawn) [3-16]
52 | 200 | O=c1c(NCCOc2ccccc2)nccn1-c1ccc(NCCN2CCCC2)cc1 [1-20]
53 | 63.1 | COc1cc(-n2ccnc(NCCOc3ccccc3)c2=O)ccc1OC1CCNCC1 [1-58]
54 | 39.8 | O=c1c(NCCc2ccccc2)nccn1CCc1ccc(CN2CCOCC2)cc1 [9-02]
55 | 12.6 | COc1cc(-n2ccnc(SCCc3ccccc3)c2=O)ccc1N1CC[C@H](N(C)C)C1 [6-05]
56 | 39.8 | COc1cc(-n2ccnc(NCCc3ccccc3)c2=O)ccc1N1CCN(C)CC1 [3-11]
57 | 794 | CN(CCOc1ccc(-n2ccnc(NCCOc3ccccc3)c2=O)cc1)CCc1ccccc1 [1-32]
58 | 2000 | COc1cc(-n2ccnc(N3CCCC(c4ccc(F)cc4)C3)c2=O)ccc1OCCN1CCCC1 (stereo not drawn) [4-03]
59 | 100 | CC(=O)c1cc(-n2ccnc(NCCOc3ccccc3)c2=O)ccc1OCCN1CCCC1 [1-53]
60 | 79.4 | COc1cc(-n2ccnc(NCCc3ccccc3)c2=O)ccc1N1CCC(N(C)C2CC2)C1 (stereo not drawn) [3-17]
61 | 79.4 | COc1cc(-n2ccnc(NCCOc3ccccc3Cl)c2=O)ccc1OCCN1CCCC1 [2-28]
62 | 39.8 | COc1cc(-n2ccnc(NCCc3ccccc3)c2=O)ccc1OCCN1CCC(F)(F)CC1 [3-56]
63 | 200 | COc1cc(-n2ccnc(NCCOc3ccccc3)c2=O)ccc1OCCNCCO [1-60]
64 | 63.1 | COc1cc(-n2ccnc(NCCc3ccccc3)c2=O)ccc1OCCN1CCOC[C@@H]1C [3-60]
65 | 31.6 | COc1cc(-n2ccnc(NCCc3cccc(Br)c3)c2=O)ccc1OCCN1CCCC1 [2-20]
66 | 50.1 | COc1cc(-n2ccnc(NCCc3ccccc3)c2=O)ccc1OCCCN1CCC(O)C1 (stereo not drawn) [3-70]
